Source: ChEMBL document CHEMBL6115013, “Design, synthesis, and biological evaluation of novel azaspirooxindolinone derivatives as potent inhibitors of ITK and BTK-dependent cancers” (Bioorg Med Chem, 2025)

How the values were obtained:
K562 = assay: Cytotoxicity against BTK positive human K562 cells assessed as inhibition of cell growth by MTS assay
[1] = Cytotoxicity against ITK/BTK null human BJ cells assessed as inhibition of cell growth by MTS assay; type: toxicity, cell-based
A549 = assay: Cytotoxicity against ITK/BTK null human A549 cells assessed as inhibition of cell growth by MTS assay
CCRF-CEM [2] = assay: Cytotoxicity against ITK positive human CCRF-CEM cells assessed as inhibition of cell growth by MTS assay
Ramos [3] = assay: Cytotoxicity against BTK positive human Ramos cells assessed as inhibition of cell growth by MTS assay
Jurkat [4] = assay: Cytotoxicity against ITK positive human Jurkat cells assessed as inhibition of cell growth by MTS assay
[5] = Cytotoxicity against ITK/BTK null human MRC5 cells assessed as inhibition of cell growth by MTS assay; type: toxicity, cell-based
U2OS = assay: Cytotoxicity against ITK/BTK null human U2OS cells assessed as inhibition of cell growth by MTS assay
HCT-116 = assay: Cytotoxicity against ITK/BTK null human HCT-116 cells assessed as inhibition of cell growth by MTS assay
CCRF-CEM [6] = assay: Antiproliferative activity against human CCRF-CEM cells; type: functional, cell-based
[7] = target: T1, Tyrosine-protein kinase ITK/TSK (Homo sapiens, UniProt Q08881); assay: Inhibition of human ITK using poly (Glu:Tyr) as substrate in presence of ATP by ADP-glo kinase assay
T1 sequence (Q08881 whole entry): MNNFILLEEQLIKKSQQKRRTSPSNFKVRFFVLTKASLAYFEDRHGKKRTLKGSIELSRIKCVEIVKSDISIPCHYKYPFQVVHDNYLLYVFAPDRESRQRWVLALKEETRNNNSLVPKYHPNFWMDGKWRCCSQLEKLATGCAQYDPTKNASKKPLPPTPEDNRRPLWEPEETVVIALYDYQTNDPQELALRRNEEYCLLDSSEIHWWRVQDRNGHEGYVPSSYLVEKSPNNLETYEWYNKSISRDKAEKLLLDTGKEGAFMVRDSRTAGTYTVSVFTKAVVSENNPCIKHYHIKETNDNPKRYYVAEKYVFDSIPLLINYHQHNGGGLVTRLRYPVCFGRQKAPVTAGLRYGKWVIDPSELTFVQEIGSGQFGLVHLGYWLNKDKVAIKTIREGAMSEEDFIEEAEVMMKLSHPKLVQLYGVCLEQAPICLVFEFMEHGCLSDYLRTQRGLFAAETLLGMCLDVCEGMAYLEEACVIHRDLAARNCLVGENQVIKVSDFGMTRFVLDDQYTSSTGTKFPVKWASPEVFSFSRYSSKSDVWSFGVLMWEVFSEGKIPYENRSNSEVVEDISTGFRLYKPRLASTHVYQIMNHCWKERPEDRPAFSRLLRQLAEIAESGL

MOLT-4 = assay: Antiproliferative activity against human MOLT-4 cells; type: functional, cell-based
[8] = Antiproliferative activity against human K562-Tax cells; type: functional, cell-based
Ramos [9] = assay: Antiproliferative activity against human Ramos cells; type: functional, cell-based
CEM-DNR = assay: Antiproliferative activity against human CEM-DNR cells; type: functional, cell-based
Jurkat [10] = assay: Antiproliferative activity against human Jurkat cells; type: functional, cell-based

SMILES	IC50 (K562) [µM]	IC50 [1] [µM]	IC50 (A549) [µM]	IC50 (CCRF-CEM [2]) [µM]	IC50 (Ramos [3]) [µM]	IC50 (Jurkat [4]) [µM]	IC50 [5] [µM]	IC50 (U2OS) [µM]	IC50 (HCT-116) [µM]	IC50 (CCRF-CEM [6]) [µM]	IC50 [7] [µM]	IC50 (MOLT-4) [µM]	IC50 [8] [µM]	IC50 (Ramos [9]) [µM]	IC50 (CEM-DNR) [µM]	IC50 (Jurkat [10]) [µM]
O=C(N1CCC2(CC1)C(=O)Nc1ncc(-c3ccc4c(c3)OCO4)cc12)C(F)(F)F	> 50	> 50	> 50	20.7	> 50	10.8	> 50	> 50	> 50	–	–	–	–	–	–	–
O=C(N1CCC2(CC1)C(=O)Nc1ncc(-c3ccc4c(c3)OCO4)cc12)C1(CF)CC1	–	–	–	–	–	–	–	–	–	25.5	–	–	–	–	–	–
CC(F)(F)C(=O)N1CCC2(CC1)C(=O)Nc1ncc(-c3ccc4c(c3)OCO4)cc12	> 50	> 50	> 50	17.2	3.06	3.58	> 50	> 50	> 50	–	0.91	–	–	–	–	–
COC(=O)C1(C(=O)N2CCC3(CC2)C(=O)Nc2ncc(-c4cc(OC)c(OC)c(OC)c4)cc23)CC1	–	–	–	–	–	–	–	–	–	> 50	–	> 50	> 50	> 50	> 50	> 50
O=C(N1CCC2(CC1)C(=O)Nc1ncc(-c3ccc4c(c3)OCO4)cc12)C1(O)CC1	> 50	> 50	> 50	> 50	> 50	> 50	> 50	> 50	> 50	–	–	–	–	–	–	–
O=C1Nc2ncc(-c3ccc4c(c3)OCO4)cc2C12CCN(S(=O)(=O)C(F)(F)F)CC2	> 50	> 50	> 50	> 50	> 50	> 50	> 50	> 50	> 50	–	–	–	–	–	–	–
N#CC1(C(=O)N2CCC3(CC2)C(=O)Nc2ncc(-c4ccc5c(c4)OCO5)cc23)CC1	> 50	> 50	> 50	> 50	1.42	50	> 50	> 50	> 50	–	–	–	–	–	–	–
O=C(O)C1(C(=O)N2CCC3(CC2)C(=O)Nc2ncc(-c4ccc5c(c4)OCO5)cc23)CC1	> 50	> 50	> 50	> 50	> 50	> 50	> 50	> 50	> 50	–	–	–	–	–	–	–
C=CC(=O)N1CCC2(CC1)C(=O)Nc1ncc(-c3ccc4c(c3)OCO4)cc12	> 50	> 50	> 50	13.5	> 50	> 50	> 50	> 50	> 50	–	–	–	–	–	–	–
O=C1Nc2ncc(-c3ccc4c(c3)OCO4)cc2C12CCN(C(=O)C1(C(F)(F)F)CC1)CC2	> 50	> 50	> 50	19.5	1.82	29.4	> 50	> 50	> 50	–	–	–	–	–	–	–
CC(C)(C#N)C(=O)N1CCC2(CC1)C(=O)Nc1ncc(-c3ccc4c(c3)OCO4)cc12	> 50	> 50	> 50	14.3	10.1	9.36	> 50	> 50	> 50	–	–	–	–	–	–	–
COC(=O)C1(C(=O)N2CCC3(CC2)C(=O)Nc2ncc(-c4ccc5c(c4)OCO5)cc23)CC1	–	–	–	–	–	–	–	–	–	15.2	–	28.8	12.5	23.9	20.4	14.8
CC(C)(O)C(=O)N1CCC2(CC1)C(=O)Nc1ncc(-c3ccc4c(c3)OCO4)cc12	> 50	> 50	> 50	> 50	> 50	> 50	> 50	> 50	> 50	–	–	–	–	–	–	–
O=C(N1CCC2(CC1)C(=O)Nc1ncc(-c3ccc4c(c3)OCO4)cc12)C1(F)CC1	–	–	–	–	–	–	–	–	–	7.26	–	–	6.09	24.3	11.9	2.25
CCOC(=O)C(C)(C)C(=O)N1CCC2(CC1)C(=O)Nc1ncc(-c3ccc4c(c3)OCO4)cc12	> 50	> 50	> 50	> 50	> 50	29.2	> 50	> 50	> 50	–	–	–	–	–	–	–
C=C(F)C(=O)N1CCC2(CC1)C(=O)Nc1ncc(-c3ccc4c(c3)OCO4)cc12	> 50	> 50	> 50	14.1	1.38	4.16	> 50	18.9	> 50	–	> 10	–	–	–	–	–
CC(C)(F)C(=O)N1CCC2(CC1)C(=O)Nc1ncc(-c3ccc4c(c3)OCO4)cc12	–	–	–	–	–	–	–	–	–	3.79	–	–	3.68	16.4	6.01	2.49
C=CC(=O)N1CCC[C@@H](n2nc(-c3ccc(Oc4ccccc4)cc3)c3c(N)ncnc32)C1 [IBRUTINIB]	–	28.9	–	–	–	–	27.9	–	–	–	–	–	–	–	–	–
